Laboratory results reported in PubChem BioAssay (NCI).
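GI50: concentration for 50% inhibition of growth. At the TGI there is no net growth.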

Key:
Test in all cases: DTP human tumour cell line panel, 384-well format
[1] = test system: 786-0 renal
[2] = test system: A498 renal
[3] = test system: A549 NSCLC
[4] = test system: ACHN renal
[5] = test system: BT-549 breast
[6] = test system: CAKI-1 renal
[7] = test system: CCRF-CEM leukemia
[8] = test system: COLO 205 colon
[9] = test system: DU-145 prostate
[10] = test system: EKVX NSCLC
[11] = test system: HCC-2998 colon
[12] = test system: HCT-15 colon
[13] = test system: HL-60(TB) leukemia
[14] = test system: HOP-62 NSCLC
[15] = test system: HOP-92 NSCLC
[16] = test system: HS 578T breast
[17] = test system: HT29 colon
[18] = test system: IGROV1 ovarian
[19] = test system: K-562 leukemia
[20] = test system: KM12 colon
[21] = test system: LOX IMVI melanoma
[22] = test system: M14 melanoma
[23] = test system: MALME-3M melanoma
[24] = test system: MCF7 breast
[25] = test system: MDA-MB-231 breast
[26] = test system: MDA-MB-435 melanoma
[27] = test system: MDA-MB-468 breast
[28] = test system: MOLT-4 leukemia
[29] = test system: NCI-H226 lung
[30] = test system: NCI-H23 lung
[31] = test system: NCI-H460 NSCLC
[32] = test system: NCI-H522 lung
[33] = test system: NCI/ADR-RES ovarian
[34] = test system: OVCAR-3 ovarian
[35] = test system: OVCAR-4 ovarian
[36] = test system: OVCAR-5 ovarian
[37] = test system: OVCAR-8 ovarian
[38] = test system: PC-3 prostate
[39] = test system: RPMI-8226 leukemia
[40] = test system: RXF 393 renal
[41] = test system: SF-268 CNS
[42] = test system: SF-295 CNS
[43] = test system: SF-539 CNS
[44] = test system: SK-MEL-5 melanoma
[45] = test system: SK-OV-3 ovarian
[46] = test system: SN12C renal
[47] = test system: SNB-19 CNS
[48] = test system: SNB-75 CNS
[49] = test system: SR leukemia
[50] = test system: SW-620 colon
[51] = test system: T-47D breast
[52] = test system: TK-10 renal
[53] = test system: U251 glioblastoma
[54] = test system: UACC-257 melanoma
[55] = test system: UACC-62 melanoma
[56] = test system: UO-31 renal

## CN(C)CCNC(=O)NC[C@H]1CC[C@@H]2[C@H](O1)c1cc(C(F)(F)F)ccc1N[C@H]2c1ccccc1
[1]
  GI50: 528 nM
  TGI: 19000 nM
[2]
  GI50: 88.3 nM
  TGI: 18700 nM
[3]
  GI50: 124 nM
  TGI: 16900 nM
[4]
  GI50: 11300 nM
  TGI: 23500 nM
[5]
  GI50: 113 nM
  TGI: 10400 nM
[6]
  GI50: 223 nM
  TGI: 26300 nM
[7]
  GI50: 28.9 nM
  TGI: 57 nM
[8]
  GI50: 39.4 nM
  TGI: 156 nM
[9]
  GI50: 279 nM
  TGI: 4690 nM
[10]
  GI50: 261 nM
  TGI: 16300 nM
[11]
  GI50: 93.2 nM
  TGI: 11700 nM
[12]
  GI50: 303 nM
  TGI: 12000 nM
[13]
  GI50: 32.5 nM
  TGI: 82.4 nM
[14]
  GI50: 618 nM
  TGI: 18200 nM
[15]
  GI50: 206 nM
  TGI: 16100 nM
[16]
  GI50: 36 nM
  TGI: 131 nM
[17]
  GI50: 168 nM
  TGI: 443 nM
[18]
  GI50: 10500 nM
  TGI: 27000 nM
[19]
  GI50: 53.3 nM
  TGI: 257 nM
[20]
  GI50: 128 nM
  TGI: 11800 nM
[21]
  GI50: 1170 nM
  TGI: 17600 nM
[22]
  GI50: 31.4 nM
  TGI: 92.3 nM
[23]
  GI50: 387 nM
  TGI: 15000 nM
[24]
  GI50: 64.9 nM
  TGI: 14000 nM
[25]
  GI50: 235 nM
  TGI: 13800 nM
[26]
  GI50: 21.8 nM
  TGI: 45.8 nM
[27]
  GI50: 29.6 nM
  TGI: 64.7 nM
[28]
  GI50: 69.6 nM
  TGI: 193 nM
[29]
  GI50: 2760 nM
  TGI: 23100 nM
[30]
  GI50: 124 nM
  TGI: 1980 nM
[31]
  GI50: 36 nM
  TGI: 130 nM
[32]
  GI50: 29.8 nM
  TGI: 73.6 nM
[33]
  GI50: 4300 nM
  TGI: 18900 nM
[34]
  GI50: 37.5 nM
  TGI: 164 nM
[35]
  GI50: 370 nM
  TGI: 10800 nM
[36]
  GI50: 380 nM
  TGI: 12700 nM
[37]
  GI50: 63.4 nM
  TGI: 16600 nM
[38]
  GI50: 128 nM
  TGI: 17700 nM
[39]
  GI50: 19.3 nM
  TGI: 38.9 nM
[40]
  GI50: 78.4 nM
  TGI: 13300 nM
[41]
  GI50: 289 nM
  TGI: 16400 nM
[42]
  GI50: 171 nM
  TGI: 2060 nM
[43]
  GI50: 93.7 nM
  TGI: 10800 nM
[44]
  GI50: 39.8 nM
  TGI: 370 nM
[45]
  GI50: 42.5 nM
  TGI: 18100 nM
[46]
  GI50: 5120 nM
  TGI: 31300 nM
[47]
  GI50: 163 nM
  TGI: 19300 nM
[48]
  GI50: 152 nM
  TGI: 16200 nM
[49]
  GI50: 20.4 nM
  TGI: 41.6 nM
[50]
  GI50: 89.4 nM
  TGI: 16000 nM
[51]
  GI50: 325 nM
  TGI: 12900 nM
[52]
  GI50: 14000 nM
  TGI: 28700 nM
[53]
  GI50: 80.3 nM
  TGI: 18100 nM
[54]
  GI50: 375 nM
  TGI: 15100 nM
[55]
  GI50: 56 nM
  TGI: 14500 nM
[56]
  GI50: 20000 nM
  TGI: 85600 nM
